One experiment addresses BACE1 (Homo sapiens, UniProt P56817). The experiment can be described thus: In vitro enzymatic BACE FRET assay. As to conditions: IC50 range class; 0.2 nM enzyme, 50 nM FRET substrate, pH 4.2. The format is biochemical. The procedure:
In Vitro Enzymatic BACE FRET (Fluorescence Resonance Energy Transfer) Assay (Enzyme Assay Data in Table 1)
The assay buffer used in this screen is 0.05 M acetate, pH 4.2, 10% DMSO final, 100 uM genapol (which is a nonionic detergent, below its Critical Micelle Concentration). The Beta Secretase enzyme (0.2 nM) is pre-incubated for one hour with inhibitors, typically in about 1 uL of DMSO according to a serial dilution, are added thereto. The assay is effectively started by the addition of FRET substrate (50 nM) and the combination is incubated for one hour. The FRET assay is terminated with by addition of Tris buffer, which raises the pH to neutrality, and the fluorescence is determined. The FRET substrate is a peptide with commercially available fluorophore and quencher, on opposite sides of the BACE cleavage site. Proteolytic cleavage of the FRET substrate releases quenching of fluorescence (excitation […] and […]).
Of the compounds tested, the in-vitro BACE FRET enzyme data for each of Examples 1-33, where available at the time of filing this application, is provided in Table 1.

Experiment [1] has as its system Aβ40 in conditioned medium of cells stably expressing Amyloid Precursor Protein (APP) (HEK cell). In words: In vitro BACE cell-based assay (HEK cell assay, Aβ40 sandwich ELISA). Conditions: Homo sapiens, HEK293; IC50 range class; inhibition of Aβ40 after 24 h incubation. The protocol: In Vitro BACE Cell-Based Assay:
The cell-based assay measures inhibition or reduction of Aβ40 □ in conditioned medium of test compound treated cells expressing amyloid precursor protein.
Cells stably expressing Amyloid Precursor Protein (APP) were plated at a density of 40K cells/well in 96 well plates (Costar). The cells were cultivated for 24 hours at 37° C. and 5% CO2 in DMEM supplemented with 10% FBS. The test compounds were then added to cells in 10-point dose response concentrations with the starting concentration being either 100 μM or 10 μM. The compounds were diluted from stock solutions in DMSO and the final DMSO concentration of the test compounds on cells was 0.1%. After 24 h of incubation with the test compounds the supernatant conditioned media was collected and the Aβ 40 levels were determined using a sandwich ELISA. The IC50 of the compound was calculated from the percent of control or percent inhibition of Aβ40 as a function of the concentration of the test compound.
The sandwich ELISA to detect Aβ 40 was performed in 96 well microtiter plates, which were pre-treated with goat anti-rabbit IgG (Pierce). The capture and detecting antibody pair that were used to detect Aβ 40 from cell supernatants were affinity purified pAb40 (Biosource) and biotinylated 6E10 (Signet Labs Inc.), respectively. The optimal concentration for the pAb40 antibody was 3 μg/ml in Superblock/TBS (Pierce) that was supplemented with 0.05% Tween 20 (Sigma). Optimal concentration for the detection antibody 6E10-biotinylated was 0.5 μg/ml in Superblock/TBS (Pierce) that had been supplemented with 2% normal goat serum and 2% normal mouse serum.
Cellular supernatants were incubated with the capture antibody for 3 h at 4° C., followed by 3 wash steps in TBS-tween (0.05%). The detecting antibody incubation was for 2 h at 4° C., again followed by the wash steps as described previously. The final readout of the ELISA is Time-Resolved Fluorescence (counts per minute) using Delfia reagents Streptavidin-Europium and Enhancement solutions (Perkin Elmer) and the Victor 2 multilabel counter (Perkin Elmer).
Of the compounds tested, the cell based assay data for each of Examples 1-33, where available at the time of filing this application, is provided in Table 1.
Background: An ELISA detects its analyte on a solid surface through an enzyme-linked reagent.

BACE1, sequence (P56817 46-501, species assumed): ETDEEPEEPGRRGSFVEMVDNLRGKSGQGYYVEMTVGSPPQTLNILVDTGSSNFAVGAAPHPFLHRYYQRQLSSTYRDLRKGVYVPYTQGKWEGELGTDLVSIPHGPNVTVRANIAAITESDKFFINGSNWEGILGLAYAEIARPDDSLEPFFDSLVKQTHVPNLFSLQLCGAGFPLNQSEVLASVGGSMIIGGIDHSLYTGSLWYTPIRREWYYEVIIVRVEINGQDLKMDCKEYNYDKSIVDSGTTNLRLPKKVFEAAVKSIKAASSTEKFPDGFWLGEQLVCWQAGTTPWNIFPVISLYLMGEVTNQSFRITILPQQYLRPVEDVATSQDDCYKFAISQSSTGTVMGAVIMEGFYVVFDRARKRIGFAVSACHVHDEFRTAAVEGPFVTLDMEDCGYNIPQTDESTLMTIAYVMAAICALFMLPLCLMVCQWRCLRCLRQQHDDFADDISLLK

`Cc1ccccc1-c1ccc2nc(N)c(CCc3ccccn3)cc2c1` [Example 29, 3-(2-(pyridin-2-yl)ethyl)-6-o-tolylquinolin-2-amine]: the IC50 (usually the midpoint of a concentration-inhibition curve) is 1 to 5 µM at BACE1 and greater than 5 µM in experiment [1].
The matching figures for `Cc1ccccc1-c1ccc2nc(N)c(CC(C)c3cncc(C4CCCC4)c3)cc2c1` (stereo not shown) [Example 30, 3-(2-(5-cyclopentylpyridin-3-yl)propyl)-6-o-tolylquinolin-2-amine]: less than 0.1 µM and 1 to 5 µM.
On to `Cc1ccccc1-c1ccc2nc(N)c(CCc3cncc(C4CCCCO4)c3)cc2c1` (stereo not shown) [Example 31, 3-(2-(5-(tetrahydro-2H-pyran-2-yl)pyridin-3-yl)ethyl)-6-o-tolylquinolin-2-amine], for which the IC50 lay in the range of 0.1 to 1 µM on BACE1 and 1 to 5 µM in experiment [1].
The matching figures for `Cc1cccc(C(=O)N2CCCC2)c1-c1ccc2nc(N)c(CCc3cncnc3)cc2c1` [Example 33, (2-(2-amino-3-(2-(pyrimidin-5-yl)ethyl)quinolin-6-yl)-3-methylphenyl)(pyrrolidin-1-yl)methanone]: less than 0.1 µM and less than 0.5 µM.
The corresponding values for `Cc1cccc(C(=O)N2CCCC2)c1-c1ccc2nc(N)c(COc3cc(C(F)(F)F)ncn3)cc2c1` [Example 34, (2-(2-amino-3-((6-(trifluoromethyl)pyrimidin-4-yloxy)methyl)quinolin-6-yl)-3-methylphenyl)(pyrrolidin-1-yl)methanone] are 0.1 to 1 µM and 1 to 5 µM.

(Values after US8822485B2, “Amino heteroaryl compounds as beta-secretase modulators and methods of use” (Amgen Inc., priority 2010, dated 2014).)
